Measurements taken from patent US10689365B2, “Substituted 2-alkylimidazolylcarboxamides as pesticides” (Bayer CropScience Aktiengesellschaft, priority 2016, dated 2020).
Like-named read-outs stand apart in the source and are kept apart here.

What was measured:
Myzus persicae [1] = test: Myzus persicae - spray test (Chinese cabbage leaf discs); assay type: in vivo; details: Myzus persicae, foliar; application rate 500 g/ha, after 5-6 days; read-out: efficacy
Procedure: Myzus persicae—Spray Test
Solvent: 78 parts by weight of acetone • • 1.5 parts by weight of dimethylformamide
(§1) Emulsifier: alkylaryl polyglycol ether
(§2) To produce a suitable active compound preparation, 1 part by weight of active compound is dissolved using the stated parts by weight of solvent and made up with water containing an emulsifier concentration of 1000 ppm until the desired concentration is attained. To produce further test concentrations, the formulation is diluted with emulsifier-containing water.
Discs of Chinese cabbage leaves (Brassica pekinensis) infested by all stages of the green peach aphid (Myzus persicae) are sprayed with an active ingredient formulation of the desired concentration.
After 5-6 days, the efficacy in % is determined. 100% means that all the aphids have been killed; 0% means that no aphids have been killed.

Myzus persicae [2] = test: Myzus persicae - oral test; assay type: in vivo; details: Myzus persicae, po, 120 h; application rate 20 ppm, after 5 days; read-out: efficacy
Procedure: (§3) Solvent: 100 parts by weight of acetone
(§4) To produce a suitable preparation of active compound, 1 part by weight of active compound is dissolved using the specified parts by weight of solvent and made up with water until the desired concentration is attained.
(§5) 50 μl of the active compound preparation are transferred into microtitre plates and made up to a final volume of 200 μl with 150 μl of IPL41 insect medium (33%+15% sugar). Subsequently, the plates are sealed with parafilm, which a mixed population of green peach aphids (Myzus persicae) within a second microtitre plate is able to puncture and imbibe the solution through it.
After 5 days, the efficacy in % is determined. 100% means that all the aphids have been killed; 0% means that no aphids have been killed.

Myzus persicae [3] = test: Myzus persicae - spray test (MYZUPE), Chinese cabbage leaf discs; assay type: in vivo; details: foliar; for percent efficacy (aphid mortality) at 20 g/ha / Emax at 20 g/ha: 20 g of ai/ha; for percent efficacy (aphid mortality) at 100 g/ha: 100 g of ai/ha; for Emax at 20 g/ha: read-out: % efficacy
Procedure: Myzus persicae—Spray Test (MYZUPE)
Solvent: 78.0 parts by weight of acetone • • 1.5 parts by weight of dimethylformamide
as §1, §2
Discs of Chinese cabbage leaves (Brassica pekinensis) infested by all stages of the green peach aphid (Myzus persicae) are sprayed with an active compound preparation of the desired concentration.
(§6) After the desired period of time, the efficacy in % is determined. 100% means that all the aphids have been killed; 0% means that no aphids have been killed.

Myzus persicae [4] = test: Myzus persicae - oral test (MYZUPE O); assay type: in vivo; details: 120 h, 5 dat, read-out: % efficacy
Procedure: Myzus persicae—Oral Test (MYZUPE O)
as §3, §4, §5, §6

Myzus persicae [5] = test: Myzus persicae - spray test (MYZUPE S), bell pepper plants; assay type: in vivo; details: 144 h, 6 dat, read-out: % efficacy
Procedure: Myzus persicae—Spray Test (MYZUPE S)
(§7) Solvent: 14 parts by weight of dimethylformamide
as §1
To produce a suitable active compound preparation, 1 part by weight of active compound is dissolved with the specified parts by weight of solvent and made up with water containing an emulsifier concentration of 1000 ppm until the desired concentration is attained. To produce further test concentrations, the formulation is diluted with emulsifier-containing water. If the addition of ammonium salts or/and penetrants is required, these are each added in a concentration of 1000 ppm to the formulation solution.
Bell pepper plants (Capsicum annuum) severely infested with the green peach aphid (Myzus persicae) are treated by spraying with the active ingredient formulation in the desired concentration.
After the desired time, the kill in % is determined. 100% means that all the animals have been killed; 0% means that no animals have been killed.

Myzus persicae [6] = test: Myzus persicae - drench test (MYZUPE D), Savoy cabbage in soil; assay type: in vivo; details: 240 h, 10 dat, read-out: % efficacy
Procedure: Myzus persicae—Drench Test (MYZUPE D)
To produce a suitable active compound preparation, 1 part by weight of active compound is mixed with the specified amounts of solvent and emulsifier, and the concentrate is diluted with water to the desired concentration, it being necessary to include the volume of soil which is drenched in the calculation. It should be ensured that a concentration of 40 ppm of emulsifier in the soil is not exceeded. To produce further test concentrations, water is used for dilution.
Savoy cabbage (Brassica oleracea) in pots with soil and infested by all stages of the green peach aphid (Myzus persicae) is watered with an active compound preparation of the desired concentration.
as §6

Aphis gossypii = Aphis gossypii - spray test (APHIGO S), cotton plants; assay type: in vivo; details: 144 h, 6 dat, read-out: % efficacy
Procedure: Aphis gossypii—Spray Test (APHIGO S)
as §7, §1
To produce a suitable active compound preparation, 1 part by weight of active compound is dissolved using the stated parts by weight of solvent and made up with water containing an emulsifier concentration of 1000 ppm until the desired concentration is attained. To produce further test concentrations, the formulation is diluted with emulsifier-containing water. If the addition of ammonium salts or/and penetrants is required, these are each added in a concentration of 1000 ppm to the formulation solution.
Cotton plants (Gossypium hirsutum) heavily infested by the cotton aphid (Aphis gossypii) are sprayed with an active ingredient formulation of the desired concentration.
After the desired time, the kill in % is determined. 100% means that all the aphids have been killed; 0% means that no aphids have been killed.

[7] = log P by HPLC on reversed-phase (C18) columns, OECD Guideline 117; assay type: physicochemical; details: reversed-phase (C18) HPLC column
Procedure: The log P values were determined in accordance with OECD Guideline 117 (EC Directive 92/69/EEC) by HPLC (high-performance liquid chromatography) using reversed-phase (RP) columns (C18), by the following methods:
[a] The LC-MS determination in the acidic range was carried out at pH 2.7 with 0.1% aqueous formic acid and acetonitrile (contains 0.1% formic acid) as mobile phases; linear gradient from 10% acetonitrile to 95% acetonitrile.
[b] LC-MS determination in the neutral range was carried out at pH 7.8 with 0.001 molar aqueous ammonium hydrogencarbonate solution and acetonitrile as mobile phases; linear gradient from 10% acetonitrile to 95% acetonitrile.

[8] = acidic range, pH 2.7, 0.1% aqueous formic acid/acetonitrile, read-out: logP[a]
[9] = neutral range, pH 7.8, aqueous ammonium hydrogencarbonate/acetonitrile, read-out: logP[n]

Structure (SMILES)	pest or weed control at 500 g/ha (Myzus persicae [1]) [%]	pest or weed control at 20 ppm (Myzus persicae [2]) [%]	percent efficacy (aphid mortality) at 20 g/ha (Myzus persicae [3]; 120 h, 5 dat) [%]	percent efficacy (aphid mortality) at 100 g/ha (Myzus persicae [3]; 120 h, 5 dat) [%]	Emax at 4 ppm (Myzus persicae [4]) [%]	Emax at 0.16 ppm (Myzus persicae [5]) [%]	Emax at 0.16 ppm (Myzus persicae [6]) [%]	Emax at 0.8 ppm (Aphis gossypii) [%]	Emax at 4 ppm (Aphis gossypii; 4 ppm) [%]	chromatographic logP [7, 8]	chromatographic logP [7, 9]	Emax at 20 g/ha (Myzus persicae [3]; 120 h, 5 dat) [%]	percent efficacy (aphid mortality) at 20 g/ha (Myzus persicae [3]; 96 h, 4 dat) [%]	percent efficacy (aphid mortality) at 100 g/ha (Myzus persicae [3]; 96 h, 4 dat) [%]	percent kill (mortality) of aphids at a fixed dose at 0.8 ppm (Aphis gossypii) [%]	percent kill (mortality) of aphids at a fixed dose at 4 ppm (Aphis gossypii; 4 ppm) [%]
CSCc1ncc(C(=O)N(C)c2cccnc2)n1C [Example I-1-26]	100	100	90	90	100	95	90	30	98	-0.04	0.98	–	–	–	–	–
CCS(=O)(=O)Cc1ncc(C(=O)N(C)c2cccnc2)n1C [Example I-1-28]	100	100	–	90	100	95	95	98	100	0.35	0.65	100	–	–	–	–
CC(C)SCc1ncc(C(=O)N(C)c2cccnc2)n1C [Example I-1-29, 2-[(Isopropylsulphanyl)methyl]-N,1-dimethyl-N-(pyridin-3-yl)-1H-imidazole-5-carboxamide]	90	100	–	90	100	99	98	98	100	0.76	1.5	–	–	–	–	–
CC(C)S(=O)(=O)Cc1ncc(C(=O)N(C)c2cccnc2)n1C [Example I-1-30, 2-[(Isopropylsulphonyl)methyl]-N,1-dimethyl-N-(pyridin-3-yl)-1H-imidazole-5-carboxamide]	90	100	90	90	100	98	98	100	100	0.56	0.88	–	–	–	–	–
CC(C)CSCc1ncc(C(=O)N(C)c2cccnc2)n1C [Example I-1-31, 2-[(isobutylsulphanyl)methyl]-N,1-dimethyl-N-(pyridin-3-yl)-1H-imidazole-5-carboxamide]	100	100	90	90	100	99	95	100	100	1.18	1.84	–	–	–	–	–
CN(C(=O)c1cnc(CSC(C)(C)C)n1C)c1cccnc1 [Example I-1-33]	100	100	–	90	100	–	90	–	75	0.97	1.67	100	–	–	–	–
CN(C(=O)c1cnc(Cn2cccn2)n1C)c1cccnc1 [Example I-1-43, N,1-Dimethyl-2-(1H-pyrazol-1-ylmethyl)-N-(pyridin-3-yl)-1H-imidazole-5-carboxamide]	100	100	–	–	100	–	70	30	98	0.35	0.81	–	90	90	–	–
CN(C(=O)c1cnc(Cn2ccc(C(F)(F)F)n2)n1C)c1cccnc1 [Example I-1-44]	100	100	–	–	100	–	90	55	99	1.46	1.64	–	90	90	–	–
CN(C(=O)c1cnc(Cn2cc(C(F)(F)F)cn2)n1C)c1cccnc1 [Example I-1-45]	90	100	–	–	100	–	80	–	–	1.34	1.59	–	–	100	98	100
Cc1ncc(C(=O)N(C)c2cccnc2)n1C [reference compound]	–	–	–	–	–	0	30	–	40	–	–	–	–	–	0	–
CCc1ncc(C(=O)N(C)c2cccnc2)n1C [reference compound]	–	–	–	–	–	0	0	–	45	–	–	–	–	–	0	–
